From patent US12448389B2, “BRM targeting compounds and associated methods of use” (Prelude Therapeutics Incorporated, priority 2020, dated 2025) come the findings set out here.

A word on the DC50: it is the midpoint of the concentration-degradation curve. Usually Dmax stands for the greatest extent of degradation seen.

The target of experiment [1] is T1, SMARCA4-HiBiT (Homo sapiens, UniProt P51532).
T1 construct: SMARCA4-HiBiT knock-in Hela monoclonal cell (CS3023226); host or cells: HeLa monoclonal knock-in line (CRISPR HiBiT knock-in at the endogenous locus, heterozygous)
Put plainly: SMARCA4 HiBiT degradation assay in HeLa cells. The format is cell-based. As to conditions: 18 hours incubation; for DC50: read-out: HeLa-HiBit-SM4 DC50; for Dmax: HeLa, read-out: HeLa-HiBit-SM4 Dmax (%). The protocol: (§1) HiBiT peptide knock-in of SMARCA2 in LgBiT expressing HEK293T cells was performed by CRISPR-mediated tagging system as described Promega. The homozygous HiBiT knock-in on c-terminus SMARCA2 was confirmed by sanger sequence. SMARCA2-HiBiT knock-in Hela monoclonal cell (CS302366) and SMARCA4-HiBiT knock-in Hela monoclonal cell (CS3023226) were purchased from Promega. The heterozygous HiBiT-knock-in was confirmed by sanger sequence in both SMARCA2-HiBiT and SMARCA4-HiBiT monoclonal cells.
(§2) SMARCA2 HiBiT and SMARCA4 HiBiT Degradation Assay in HeLa Cells
(§3) Dispense 10 ul aliquot of prepared Hela-SMARCA2-HiBiT or Hela-SMARCA4-HiBiT cells (1:1 ratio of cells:Trypan Blue (#1450013, Bio-Rad)) onto cell counting slide (#145-0011, Bio-Rad) and obtain cell density and cell viability using cell counter (TC20, Bio-Rad). Remove appropriate volume of resuspended cells from culture flask to accommodate 2500 cells/well @20 μL/well. Transfer Hela-HiBiT cells to 50 mL conical (#430290, Corning). Spin down at 1000 rpm for 5 min using tabletop centrifuge (SPINCHRON 15, Beckman). Discard supernatant and resuspend cell pellet in modified EMEM (#30-2003, ATCC) cell culture media containing 10% FBS (F2422-500ML, Sigma), and 1×Penicillin/Streptomycin (200 g/L) (30-002-CI, Corning) to a cell density of 125,000 cells/mL. Dispense 20 μL of resuspended Hela-HiBit cells per well in 384-well TC treated plate (#12-565-343, Thermo Scientific) using standard cassette (#50950372, Thermo Scientific) on Multidrop Combi (#5840310, Thermo Scientific) inside laminar flow cabinet. Dispense test compounds onto plates using digital liquid dispenser (D300E, Tecan). Incubate plates in humidified tissue culture incubator @37° C. for 18 hours. Add 20 μL of prepared Nano-Glo® HiBiT Lytic detection buffer (N3050, Promega) to each well of 384-well plate using small tube cassette (#24073295, Thermo Scientific) on Multidrop Combi, incubate @RT for 30-60 min. Read plates on microplate reader (Envision 2105, PerkinElmer) using 384 well Ultra-Sensitive luminescence mode. Raw data files and compound information reports are swept into centralized data lake and deconvoluted using automated scripts designed by TetraScience, Inc. Data analysis, curve-fitting and reporting done in Dotmatics Informatics Suite using Screening Ultra module.
(In general: HiBiT is a short tag that completes a luciferase, so light tracks the accessible tagged protein.)

In experiment [2] the target is T2, SMARCA2-HiBiT (Homo sapiens, UniProt P51531).
T2 construct: SMARCA2-HiBiT knock-in Hela monoclonal cell (CS302366); host or cells: HeLa monoclonal knock-in line (CRISPR HiBiT knock-in at the endogenous locus, heterozygous)
Nature of the experiment: SMARCA2 HiBiT degradation assay in HeLa cells. The format is cell-based. The following applies: 18 hours incubation; for DC50: read-out: HeLa_HiBit-SM2 DC50; for Dmax: HeLa, read-out: HeLa-HiBit-SM2 Dmax (%). The protocol: as §1, §2, §3

T2 sequence (P51531 whole entry): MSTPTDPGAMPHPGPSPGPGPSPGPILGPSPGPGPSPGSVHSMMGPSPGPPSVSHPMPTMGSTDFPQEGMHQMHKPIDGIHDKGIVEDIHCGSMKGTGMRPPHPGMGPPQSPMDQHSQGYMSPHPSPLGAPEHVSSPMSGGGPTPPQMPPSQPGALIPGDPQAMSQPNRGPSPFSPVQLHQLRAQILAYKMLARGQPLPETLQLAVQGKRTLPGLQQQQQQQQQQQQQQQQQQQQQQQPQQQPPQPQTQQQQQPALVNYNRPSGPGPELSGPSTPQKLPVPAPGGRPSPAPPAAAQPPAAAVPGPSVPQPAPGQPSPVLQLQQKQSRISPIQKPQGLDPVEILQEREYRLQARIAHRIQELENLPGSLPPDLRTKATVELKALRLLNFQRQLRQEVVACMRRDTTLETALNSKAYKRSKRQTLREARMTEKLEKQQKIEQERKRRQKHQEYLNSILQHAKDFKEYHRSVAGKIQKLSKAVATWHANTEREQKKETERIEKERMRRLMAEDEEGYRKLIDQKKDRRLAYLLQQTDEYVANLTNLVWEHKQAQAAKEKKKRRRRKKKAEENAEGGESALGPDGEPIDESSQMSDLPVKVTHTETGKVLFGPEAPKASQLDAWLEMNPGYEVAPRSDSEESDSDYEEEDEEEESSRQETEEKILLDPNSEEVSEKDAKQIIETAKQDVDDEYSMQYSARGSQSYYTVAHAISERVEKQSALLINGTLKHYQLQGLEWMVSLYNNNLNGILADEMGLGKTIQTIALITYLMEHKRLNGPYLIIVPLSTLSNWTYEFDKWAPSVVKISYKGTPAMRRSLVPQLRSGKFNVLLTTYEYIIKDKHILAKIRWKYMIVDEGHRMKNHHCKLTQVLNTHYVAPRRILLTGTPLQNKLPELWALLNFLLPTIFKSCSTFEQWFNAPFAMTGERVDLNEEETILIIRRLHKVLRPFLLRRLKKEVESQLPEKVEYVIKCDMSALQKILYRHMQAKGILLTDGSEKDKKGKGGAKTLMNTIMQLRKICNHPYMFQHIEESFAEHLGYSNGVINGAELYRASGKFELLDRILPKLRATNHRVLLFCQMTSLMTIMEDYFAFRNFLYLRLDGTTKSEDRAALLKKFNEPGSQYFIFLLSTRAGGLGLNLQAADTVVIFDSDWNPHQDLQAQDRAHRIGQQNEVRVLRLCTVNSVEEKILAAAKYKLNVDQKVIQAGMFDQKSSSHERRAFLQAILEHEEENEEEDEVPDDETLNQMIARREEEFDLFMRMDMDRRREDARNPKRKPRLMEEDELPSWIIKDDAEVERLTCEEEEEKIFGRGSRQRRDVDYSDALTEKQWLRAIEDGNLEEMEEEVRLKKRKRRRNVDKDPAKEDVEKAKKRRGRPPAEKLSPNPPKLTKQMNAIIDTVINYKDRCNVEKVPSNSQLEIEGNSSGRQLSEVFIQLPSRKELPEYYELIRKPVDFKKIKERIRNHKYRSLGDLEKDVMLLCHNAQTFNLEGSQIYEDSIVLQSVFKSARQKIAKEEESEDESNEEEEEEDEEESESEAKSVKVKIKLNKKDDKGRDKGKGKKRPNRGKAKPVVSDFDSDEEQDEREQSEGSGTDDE
T1 sequence (P51532 whole entry): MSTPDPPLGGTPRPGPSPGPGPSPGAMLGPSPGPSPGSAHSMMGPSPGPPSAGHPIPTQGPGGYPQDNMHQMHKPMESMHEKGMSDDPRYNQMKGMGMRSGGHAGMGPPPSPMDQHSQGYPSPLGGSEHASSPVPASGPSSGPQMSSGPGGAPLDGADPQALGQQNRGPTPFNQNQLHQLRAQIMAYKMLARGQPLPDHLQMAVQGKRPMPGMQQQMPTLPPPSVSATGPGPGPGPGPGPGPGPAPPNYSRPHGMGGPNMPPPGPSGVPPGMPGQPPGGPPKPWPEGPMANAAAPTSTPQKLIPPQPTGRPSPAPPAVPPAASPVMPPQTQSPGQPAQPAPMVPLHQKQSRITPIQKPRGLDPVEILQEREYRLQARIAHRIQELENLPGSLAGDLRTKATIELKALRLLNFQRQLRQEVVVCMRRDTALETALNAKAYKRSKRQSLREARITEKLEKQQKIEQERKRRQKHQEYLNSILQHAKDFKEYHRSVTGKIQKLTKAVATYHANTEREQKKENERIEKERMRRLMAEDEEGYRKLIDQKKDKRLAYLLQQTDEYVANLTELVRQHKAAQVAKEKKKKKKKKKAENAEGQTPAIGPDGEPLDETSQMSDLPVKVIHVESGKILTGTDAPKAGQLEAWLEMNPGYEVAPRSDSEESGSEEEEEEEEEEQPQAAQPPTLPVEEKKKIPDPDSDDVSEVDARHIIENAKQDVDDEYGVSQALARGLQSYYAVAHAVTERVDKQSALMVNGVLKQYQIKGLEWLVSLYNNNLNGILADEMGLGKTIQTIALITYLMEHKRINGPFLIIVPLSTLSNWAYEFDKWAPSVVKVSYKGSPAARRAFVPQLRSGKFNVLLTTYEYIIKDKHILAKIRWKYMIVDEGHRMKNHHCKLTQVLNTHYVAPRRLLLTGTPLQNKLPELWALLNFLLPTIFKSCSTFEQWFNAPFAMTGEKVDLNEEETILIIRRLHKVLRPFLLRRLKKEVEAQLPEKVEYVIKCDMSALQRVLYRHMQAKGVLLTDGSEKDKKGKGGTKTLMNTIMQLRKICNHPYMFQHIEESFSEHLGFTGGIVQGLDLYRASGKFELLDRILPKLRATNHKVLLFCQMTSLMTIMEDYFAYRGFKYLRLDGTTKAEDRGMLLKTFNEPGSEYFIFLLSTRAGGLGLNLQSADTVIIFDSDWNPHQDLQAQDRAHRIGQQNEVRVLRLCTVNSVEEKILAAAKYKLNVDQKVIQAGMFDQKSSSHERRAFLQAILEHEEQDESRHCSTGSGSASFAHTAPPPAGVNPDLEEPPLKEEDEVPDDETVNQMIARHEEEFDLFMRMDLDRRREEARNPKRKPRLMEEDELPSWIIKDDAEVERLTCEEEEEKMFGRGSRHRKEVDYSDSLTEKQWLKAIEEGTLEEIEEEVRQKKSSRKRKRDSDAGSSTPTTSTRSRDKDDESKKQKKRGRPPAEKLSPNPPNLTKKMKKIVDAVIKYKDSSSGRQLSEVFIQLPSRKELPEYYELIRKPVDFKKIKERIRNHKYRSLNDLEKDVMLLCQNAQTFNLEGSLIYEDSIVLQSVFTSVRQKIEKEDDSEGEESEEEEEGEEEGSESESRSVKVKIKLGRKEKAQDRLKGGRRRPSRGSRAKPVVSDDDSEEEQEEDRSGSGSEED

With `CC(C1CCN(CC2CCN(c3ccc4c(c3)C(=O)N(C3CCC(=O)NC3=O)C4=O)CC2)CC1)N1CCN2c3cc(-c4ccccc4O)nnc3NC[C@H]2C1` (stereo partly drawn) [Example 32, 2-(2,6-dioxopiperidin-3-yl)-5-(4-((4-(1-((S)-2-(2-hydroxyphenyl)-5,6,6a,7,9,10-hexahydro-8H-pyrazino[1′,2′:4,5]pyrazino[2,3-c]pyridazin-8-yl)ethyl)piperidin-1-yl)methyl)piperidin-1-yl)isoindoline-1,3-dione], in experiment [1], the DC50 was less than 10 nM and the maximal degradation (Dmax) is more than 85%. Besides, in experiment [2], the DC50 was less than 10 nM and the Dmax is more than 85%.

Consider `O=C1CCC(N2C(=O)c3ccc(N4CCC(CN5CCC(CN6CCN7c8cc(-c9ccccc9O)nnc8NC[C@H]7C6)C5)CC4)cc3C2=O)C(=O)N1` (stereo partly drawn) [Example 33, 2-(2,6-dioxopiperidin-3-yl)-5-(4-((3-(((S)-2-(2-hydroxyphenyl)-5,6,6a,7,9,10-hexahydro-8H-pyrazino[1′,2′:4,5]pyrazino[2,3-c]pyridazin-8-yl)methyl)pyrrolidin-1-yl)methyl)piperidin-1-yl)isoindoline-1,3-dione], for which, in experiment [1], the 50% degradation concentration (DC50) was less than 10 nM and the maximal degradation (Dmax) lay within 75 to 85%. For the same compound, in experiment [2], the DC50 was less than 10 nM and the maximal degradation (Dmax) was more than 85%.

With `CC(C)(C)C(=O)OCN1C(=O)CCC(N2C(=O)c3ccc(N4CCC(CN5CCC(CN6CCN7c8cc(-c9ccccc9O)nnc8NC[C@H]7C6)CC5)CC4)cc3C2=O)C1=O` (stereo partly drawn) [Example 34, (3-(5-(4-((4-(((S)-2-(2-hydroxyphenyl)-5,6,6a,7,9,10-hexahydro-8H-pyrazino [1′,2′:4,5]pyrazino[2,3-c]pyridazin-8-yl)methyl)piperidin-1-yl)methyl)piperidin-1-yl)-1,3-dioxoisoindolin-2-yl)-2,6-dioxopiperidin-1-yl)methyl pivalate], the DC50 in experiment [1] and in experiment [2] was less than 10 nM throughout. Besides, the Dmax in experiment [1] and in experiment [2] was more than 85% each time.

As to `O=C1CCC(N2C(=O)c3ccc(N4CCC(CN5CCCC(CN6CCN7c8cc(-c9ccccc9O)nnc8NC[C@H]7C6)C5)CC4)cc3C2=O)C(=O)N1` (stereo partly drawn) [Example 35, 2-(2,6-dioxopiperidin-3-yl)-5-(4-((3-(((S)-2-(2-hydroxyphenyl)-5,6,6a,7,9,10-hexahydro-8H-pyrazino[1′,2′:4,5]pyrazino[2,3-c]pyridazin-8-yl)methyl)piperidin-1-yl)methyl)piperidin-1-yl)isoindoline-1,3-dione], the DC50 in experiment [1] and in experiment [2] was less than 10 nM in each case. In addition, the values for the maximal degradation (Dmax) in experiment [1] and in experiment [2] were 50 to 75% and 75 to 85%, respectively.

With `O=C1CCC(N2C(=O)c3ccc(N4CCC(CN5CC(CN6CCN7c8cc(-c9ccccc9O)nnc8NC[C@H]7C6)C5)CC4)cc3C2=O)C(=O)N1` (stereo partly drawn) [Example 36, 2-(2,6-dioxopiperidin-3-yl)-5-(4-((3-(((S)-2-(2-hydroxyphenyl)-5,6,6a,7,9,10-hexahydro-8H-pyrazino[1′,2′:4,5]pyrazino[2,3-c]pyridazin-8-yl)methyl)azetidin-1-yl)methyl)piperidin-1-yl)isoindoline-1,3-dione], in experiment [1], the DC50 is less than 10 nM and the Dmax fell in the range of 75 to 85%. Moreover, in experiment [2], the DC50 was less than 10 nM and the maximal degradation (Dmax) was more than 85%.

With `CC1(CN2CCN3c4cc(-c5ccccc5O)nnc4NC[C@H]3C2)CCN(CC2CCN(c3ccc4c(c3)C(=O)N(C3CCC(=O)NC3=O)C4=O)CC2)CC1` (stereo partly drawn) [Example 37, 2-(2,6-dioxopiperidin-3-yl)-5-(4-((4-(((S)-2-(2-hydroxyphenyl)-5,6,6a,7,9,10-hexahydro-8H-pyrazino[1′,2′:4,5]pyrazino[2,3-c]pyridazin-8-yl)methyl)-4-methylpiperidin-1-yl)methyl)piperidin-1-yl)isoindoline-1,3-dione], the DC50 in experiment [1] and in experiment [2] was less than 10 nM each time. Also, the maximal degradation (Dmax) in experiment [1] and in experiment [2] was more than 85% in each case.

In the case of `O=C1CCC(N2C(=O)c3ccc(N4CCC(CN5CCC(O)(CN6CCN7c8cc(-c9ccccc9O)nnc8NC[C@H]7C6)CC5)CC4)cc3C2=O)C(=O)N1` (stereo partly drawn) [Example 38, 2-(2,6-dioxopiperidin-3-yl)-5-(4-((4-hydroxy-4-(((S)-2-(2-hydroxyphenyl)-5,6,6a,7,9,10-hexahydro-8H-pyrazino[1′,2′:4,5]pyrazino[2,3-c]pyridazin-8-yl)methyl)piperidin-l-yl)methyl)piperidin-1-yl)isoindoline-1,3-dione], in experiment [1], the 50% degradation concentration (DC50) is less than 10 nM and the greatest degradation seen (Dmax) is more than 85%. In experiment [2], the DC50 is less than 10 nM and the maximal degradation (Dmax) was more than 85%.

On to `O=C1CCC(N2C(=O)c3ccc(N4CCC(CN5CC6CC(C5)C6CN5CCN6c7cc(-c8ccccc8O)nnc7NC[C@H]6C5)CC4)cc3C2=O)C(=O)N1` (stereo partly drawn) [Example 39, 2-(2,6-dioxopiperidin-3-yl)-5-(4-((6-(((S)-2-(2-hydroxyphenyl)-5,6,6a,7,9,10-hexahydro-8H-pyrazino[1′,2′:4,5]pyrazino[2,3-c]pyridazin-8-yl)methyl)-3-azabicyclo[3.1.1]heptan-3-yl)methyl)piperidin-1-yl)isoindoline-1,3-dione], for which the DC50 in experiment [1] and in experiment [2] was less than 10 nM in each case. Further, the Dmax in experiment [1] is 50 to 75%; in experiment [2] it was more than 85%.

Turning to `CN(CCCN1CCN2c3cc(-c4ccccc4O)nnc3NC[C@H]2C1)CC1CCN(c2ccc3c(c2)C(=O)N(C2CCC(=O)NC2=O)C3=O)CC1` (stereo partly drawn) [Example 40, 2-(2,6-dioxopiperidin-3-yl)-5-(4-(((3-((S)-2-(2-hydroxyphenyl)-5,6,6a,7,9,10-hexahydro-8H-pyrazino[1′,2′:4,5]pyrazino[2,3-c]pyridazin-8-yl)propyl)(methyl)amino)methyl)piperidin-1-yl)isoindoline-1,3-dione], in experiment [1], the half-maximal degradation concentration (DC50) was less than 10 nM and the Dmax was 50 to 75%. In addition, in experiment [2], the DC50 was less than 10 nM and the Dmax lay in the range of 50 to 75%.

With `O=C1CCC(N2C(=O)c3ccc(N4CCC(CN5CC6(CC(CN7CCN8c9cc(-c%10ccccc%10O)nnc9NC[C@H]8C7)C6)C5)CC4)cc3C2=O)C(=O)N1` (stereo partly drawn) [Example 41, 2-(2,6-dioxopiperidin-3-yl)-5-(4-((6-(((S)-2-(2-hydroxyphenyl)-5,6,6a,7,9,10-hexahydro-8H-pyrazino[1′,2′:4,5]pyrazino[2,3-c]pyridazin-8-yl)methyl)-2-azaspiro[3.3]heptan-2-yl)methyl)piperidin-1-yl)isoindoline-1,3-dione], in experiment [1], the DC50 was less than 10 nM and the Dmax was more than 85%. For the same compound, in experiment [2], the DC50 was less than 10 nM and the Dmax is more than 85%.

On to `O=C1CCC(N2C(=O)c3ccc(N4CCC(CN5C[C@@H]6[C@H](C5)[C@H]6CN5CCN6c7cc(-c8ccccc8O)nnc7NC[C@H]6C5)CC4)cc3C2=O)C(=O)N1` (stereo partly drawn) [Example 42, 2-(2,6-dioxopiperidin-3-yl)-5-(4-(((1R,5S,6r)-6-(((S)-2-(2-hydroxyphenyl)-5,6,6a,7,9,10-hexahydro-8H-pyrazino[1′,2′:4,5]pyrazino[2,3-c]pyridazin-8-yl)methyl)-3-azabicyclo[3.1.0]hexan-3-yl)methyl)piperidin-1-yl)isoindoline-1,3-dione], for which, in experiment [1], the DC50 was less than 10 nM and the greatest degradation seen (Dmax) lay in the range of 50 to 75%. Also, in experiment [2], the DC50 is less than 10 nM and the Dmax was more than 85%.

For the compound `O=C1CCC(N2C(=O)c3ccc(N4CCC(CN5C[C@@H]6[C@H](C5)[C@@H]6CN5CCN6c7cc(-c8ccccc8O)nnc7NC[C@H]6C5)CC4)cc3C2=O)C(=O)N1` (stereo partly drawn) [Example 43, 2-(2,6-dioxopiperidin-3-yl)-5-(4-(((1R,5S,6s)-6-(((S)-2-(2-hydroxyphenyl)-5,6,6a,7,9,10-hexahydro-8H-pyrazino[1′,2′:4,5]pyrazino[2,3-c]pyridazin-8-yl)methyl)-3-azabicyclo[3.1.0]hexan-3-yl)methyl)piperidin-1-yl)isoindoline-1,3-dione], in experiment [1], the DC50 was less than 10 nM and the Dmax lay within 50 to 75%. In experiment [2], the DC50 is less than 10 nM and the Dmax is more than 85%.
